The values below come from US11266632B1, “Maslinic and oleanolic acids derivatives for treating SARS-CoV-2 infection” (priority 2021, dated 2022).

pIC50: −log10 of the molar value. Like-named read-outs stand apart in the source and are kept apart here.

The test system of assay [1] is SARS-CoV-2 "NRC-03-nhCoV" virus. Description: Inhibitory concentration 50 (IC50) determination, virus-induced cytopathic effect in Vero-E6 cells, crystal violet. It counts as cell-based. Particulars: for Selectivity Index (CC50/IC50): CC50 Vero E6 / IC50 NRC-03-nhCoV. A general note: Cytopathic effects are the visible damage that an infection or toxin causes in cultured cells.

The test system of assay [2] is MERS-CoV virus "NRCE-HKU270". Type of assay: cell-based. The conditions noted are these: Vero E6 cells.
For the next assay, the system named is NRC-03-nhCoV. As to the kind of experiment: Mode of antiviral action, plaque infectivity reduction assay in Vero-E6 cells. Type of assay: cell-based, SARS-CoV-2. The procedure:
To investigate whether the tested compound with high selectivity index and antiviral activity against NRC-03-nhCoV affect (a) viral adsorption, (b) viral replication or (c) viricidal effect, a plaque infectivity reduction assay was performed according to the following protocols:
The viral adsorption mechanism was assayed according to a protocol by Zhang et al. with modifications. Vero-E6 cells were cultivated in a 6-well plate (10^5 cells/mL) for 24 h at 37° C. Each tested drug was applied in 500 μL of medium without supplements and co-incubated with the cells for 2 h at 4° C. The non-absorbed drug in the applied inocula was removed by washing cells three times with 1×PBS. The NRC-03-nhCoV was diluted to a countable range “10-4” and co-incubated with the pretreated cells. About 1 h post-incubation, the inocula were removed and 3 mL of agarose overlay (1:1 mixture of warmed 2× plaque media and a stock solution of heated 2% agarose) were added. The plates were kept at room temperature to solidify and then incubated at 37° C. to allow the formation of viral plaques. […]
The impact of the tested drug on viral replication was determined as previously described. […] The analyzed compound was then applied in varying concentrations to infected cells for another 1 h contact time at 37° C. […]
The virucidal mechanism was analyzed. […]

Setting [3] is: Severe acute respiratory syndrome coronavirus 2, Vero C1008, 72 h.
Setting [4] is: Severe acute respiratory syndrome coronavirus 2, Vero C1008, 72 h, NRC-03-nhCoV in Vero E6, 72 h, reduction of CPE by 50%, read-out: IC50.

One may read the pIC50 as the negative decadic logarithm of the IC50, by convention in mol/L. In the case of `CC1(C)CC[C@]2(C(=O)O)CC[C@]3(C)C(=CC[C@@H]4[C@@]5(C)CC[C@H](O)C(C)(C)[C@@H]5CC[C@]43C)[C@@H]2C1` [Compound 1, Oleanic acid], in assay [1], the “Selectivity Index (CC50/IC50)” value is reported as 0.39. For the same compound, in assay [1] (setting [3]), the pIC50 was 3.32.

As for `CC1(C)CC[C@]2(C(=O)O)CC[C@]3(C)C(=CC[C@@H]4[C@@]5(C)C[C@@H](O)[C@H](O)C(C)(C)[C@@H]5CC[C@]43C)[C@@H]2C1` [Compound 2, Maslinic acid], the “Selectivity Index (CC50/IC50)” value in assay [1] was 0.97. The pIC50 in assay [1] (setting [3]) is 4.00.

For the compound `C#CCOC(=O)[C@]12CCC(C)(C)CC1C1=CCC3[C@@]4(C)CC[C@H](O)C(C)(C)C4CC[C@@]3(C)[C@]1(C)CC2` (stereo partly drawn) [Compound 3, Propargyl-(3β)-3-hydroxyolean-12-en-28-oate], the “Selectivity Index (CC50/IC50)” value in assay [1] was 2.32.

As to `C#CCOC(=O)[C@]12CCC(C)(C)CC1C1=CCC3[C@@]4(C)C[C@@H](O)[C@H](O)C(C)(C)C4CC[C@@]3(C)[C@]1(C)CC2` (stereo partly drawn) [Compound 4, Propargyl-(2α,3β)-2,3-dihydroxyolean-12-en-28-oate], the “Selectivity Index (CC50/IC50)” value in assay [1] is 0.67. The pIC50 in assay [1] (setting [3]) was 3.63.

Take `C#CCOC(=O)[C@]12CCC(C)(C)CC1C1=CCC3[C@@]4(C)C[C@@H](OCC#C)[C@H](O)C(C)(C)C4CC[C@@]3(C)[C@]1(C)CC2` (stereo partly drawn) [Compound 5, Propargyl-(2α)-2-(propargyloxy)-(3β)-3-hydroxy-olean-12-en-28-oate]: the “Selectivity Index (CC50/IC50)” value in assay [1] turned out to be 1.06. For the same compound, the pIC50 in assay [1] (setting [4]) was 4.07.

On to `C#CCOC(=O)[C@]12CCC(C)(C)CC1C1=CCC3[C@@]4(C)C[C@@H](O)[C@H](OCC#C)C(C)(C)C4CC[C@@]3(C)[C@]1(C)CC2` (stereo partly drawn) [Compound 6, Propargyl-(3α)-3-(propargyloxy)-(2β)-2-hydroxy-olean-12-en-28-oate], for which the “Selectivity Index (CC50/IC50)” value in assay [1] is 1.55. Moreover, in assay [1] (setting [4]), the pIC50 was 3.87.

Consider `C#CCOC(=O)[C@]12CCC(C)(C)CC1C1=CCC3[C@@]4(C)C[C@@H](OCC#C)[C@H](OCC#C)C(C)(C)C4CC[C@@]3(C)[C@]1(C)CC2` (stereo partly drawn) [Compound 7, Propargyl-(2α,3β)-2,3-bis(propargyloxy)-olean-12-en-28-oate], for which the “Selectivity Index (CC50/IC50)” value in assay [1] was found to be 0.9. Besides, in assay [1] (setting [4]), the pIC50 is 3.97.

For the compound `Cc1cccc(-n2nncc2COC(=O)[C@]23CCC(C)(C)CC2C2=CCC4[C@@]5(C)CC[C@H](O)C(C)(C)C5CC[C@@]4(C)[C@]2(C)CC3)c1` (stereo partly drawn) [Compound 8, (1-(3-mcthylphenyl)-1H-1,2,3-triazol-5-yl)methyl-(3β)-3-hydroxyolean-12-en-28-oate], in assay [1], the “Selectivity Index (CC50/IC50)” value is reported as 0.98. Further, in assay [1] (setting [4]), the pIC50 was 3.76.

Regarding `Cc1cccc(-n2cc(COC(=O)[C@]34CCC(C)(C)CC3C3=CCC5[C@@]6(C)CC[C@H](O)C(C)(C)C6CC[C@@]5(C)[C@]3(C)CC4)nn2)c1` (stereo partly drawn) [Compound 10, (1-(3-methylphenyl)-1H-1,2,3-triazol-4-yl)methyl-(3β)-3-hydroxyolean-12-en-28-oate], in assay [1], the “Selectivity Index (CC50/IC50)” value was 3.68.

Consider `CC1(C)CC[C@]2(C(=O)OCc3cn(-c4ccccc4)nn3)CC[C@]3(C)C(=CCC4[C@@]5(C)C[C@@H](O)[C@H](O)C(C)(C)C5CC[C@]43C)C2C1` (stereo partly drawn) [Compound 11, (1-Phenyl-1H-1,2,3-triazol-4-yl)methyl-(2α,3β)-2,3-dihydroxyolean-12-en-28-oate], for which the “Selectivity Index (CC50/IC50)” value in assay [1] was 1.62. Further, the pIC50 in assay [1] (setting [4]) was 3.87.

Consider `CC1(C)CC[C@]2(C(=O)OCc3cn(-c4ccc(Cl)cc4)nn3)CC[C@]3(C)C(=CCC4[C@@]5(C)C[C@@H](OCc6cn(-c7ccc(Cl)cc7)nn6)[C@H](O)C(C)(C)C5CC[C@]43C)C2C1` (stereo partly drawn) [Compound 12, (1-(4-Chlorophenyl)-1H-1,2,3-triazol-4-yl)methyl-(2α,3β)-2-((1-(4-chlorophenyl)-1H-1,2,3-triazol-4-yl)methoxy)-3-hydroxyolean-12-en-28-oate], for which the “Selectivity Index (CC50/IC50)” value in assay [1] amounted to 4.42. The pIC50 in assay [1] (setting [4]) is 3.94.

In the case of `COc1ccc(-n2cc(COC(=O)[C@]34CCC(C)(C)CC3C3=CCC5[C@@]6(C)C[C@@H](O)[C@H](OCc7cn(-c8ccc(OC)cc8)nn7)C(C)(C)C6CC[C@@]5(C)[C@]3(C)CC4)nn2)cc1` (stereo partly drawn) [Compound 13, (1-(4-Methoxyphenyl)-1H-1,2,3-triazol-4-yl)methyl-(2α,3β)-2-hydroxy-3-((1-(4-methoxyphenyl)-1H-1,2,3-triazol-4-yl)methoxy)-olean-12-en-28-oate], the “Selectivity Index (CC50/IC50)” value in assay [1] was determined as 2.24. Moreover, in assay [1] (setting [4]), the negative-log IC50 (pIC50) was 3.80.

As for `COc1ccc(-n2cc(COC(=O)[C@]34CCC(C)(C)CC3C3=CCC5[C@@]6(C)C[C@@H](OCc7cn(-c8ccc(OC)cc8)nn7)[C@H](OCc7cn(-c8ccc(OC)cc8)nn7)C(C)(C)C6CC[C@@]5(C)[C@]3(C)CC4)nn2)cc1` (stereo partly drawn) [Compound 14, (1-(4-Methoxyphenyl)-1H-1,2,3-triazol-4-yl)methyl-(2α,3β)-2,3-bis((1-(4-methoxyphenyl)-1H-l,2,3-triazol-4-yl)methoxy)-olean-12-en-28-oate], in assay [1], the “Selectivity Index (CC50/IC50)” value amounted to 2.96. Also, the pIC50 in assay [1] (setting [4]) is 3.86.

Turning to `COc1ccc(-c2cc(COC(=O)[C@]34CCC(C)(C)CC3C3=CCC5[C@@]6(C)CC[C@H](O)C(C)(C)C6CC[C@@]5(C)[C@]3(C)CC4)on2)cc1` (stereo partly drawn) [Compound 15, (3-(4-methoxyphenyl)isoxazol-5-yl) methyl-(3β)-3-hydroxyolean-12-en-28-oate], the “Selectivity Index (CC50/IC50)” value in assay [1] was 0.79.

Consider `COc1ccc(-c2cc(COC(=O)[C@]34CCC(C)(C)CC3C3=CCC5[C@@]6(C)C[C@@H](O)[C@H](O)C(C)(C)C6CC[C@@]5(C)[C@]3(C)CC4)on2)cc1` (stereo partly drawn) [Compound 16, (3-(4-methoxyphenyl)isoxazol-5-yl) methyl-(2α,3β)-2,3-dihydroxyolean-12-en-28-oate], for which the “Selectivity Index (CC50/IC50)” value in assay [1] stood at 1.48.

For `CC1(C)CC[C@]2(C(=O)OCc3cc(-c4ccc(Cl)cc4)no3)CC[C@]3(C)C(=CCC4[C@@]5(C)C[C@@H](O)[C@H](O)C(C)(C)C5CC[C@]43C)C2C1` (stereo partly drawn) [Compound 17, (3-(4-chlorophenyl)isoxazol-5-yl) methyl-(2α,3β)-2,3-dihydroxyolean-12-en-28-oate], the pIC50 in assay [1] (NRC-03-nhCoV in Vero E6, 72 h, reduction of CPE by 50%, read-out: IC50) was 4.00 to 5.39. Further, the pIC50 in assay [1] (setting [4]) is 5.39. Moreover, the “antiviral activity against NRCE-HKU270” value in assay [2] is recorded as “promising antiviral activity against NRCE-HKU270 at micromolar concentrations”. Moreover, in the assay with NRC-03-nhCoV, the “interference with viral adsorption and replication” value is “efficiently impair viral replication and adsorption”; the virucidal effect result is “virucidal effect”.
